According to US20080306116A1, “ARYLOXAZOLE, ARYLOXADIAZOLE AND BENZIMIDAZOLE DERIVATIVES” (priority 2007, published 2008):

Target: T1, human subtype 5 somatostatin receptor (Homo sapiens, UniProt P35346)
T1 construct: host or cells: CHO cell line, stably transfected; membranes used
Experiment: radioligand replacement (binding) assay, membranes of CHO cells expressing human SSTR5, 125I-labeled 11-Tyr somatostatin-14 tracer
Conditions: CHO cell membranes, 0.05 nM 125I-labeled 11-Tyr somatostatin-14, 1 h at rt; Ki calculated from IC50 by Cheng-Prussoff equation; read-out: hSSTR5 Ki
Method: A CHO cell line stably transfected with a plasmid encoding the human subtype 5 somatostatin receptor (GenBank accession number D16827) was obtained from Euroscreen. Cells were cultured and used for binding and functional assays.
Membranes of these cells were prepared by sonication in the presence of protease inhibitors and subsequent fractionating centrifugation. The protein concentration in the membrane preparation was determined using a commercial kit (BCA kit, Pierce, USA). Membranes were stored at −80° C. until use. After thawing membranes were diluted in assay buffer (50 mM Tris-HCl at pH 7.4, 5 mM MgCl2 and 0.20% BSA) and subjected to dounce homogenization.
For binding studies, 0.1 mL membrane suspension, corresponding to approximately 6×10^−15 mol receptor, was incubated for 1 h at rt with 0.05 nM ^125I-labeled tracer (11-Tyr somatostatin-14, Perkin-Elmer) and either test compound in varying concentrations or, for the determination of non-specific binding, 0.001 mM non-labeled somatostatin-14. The incubation was stopped by filtration through GF/B glassfiber filters and washing with ice-cold wash buffer (50 mM Tris-HCl at pH 7.4). The bound radioactivity was measured after application of a scintillation cocktail (Microscint 40) and expressed as disintegrations per minute (dpm).
The receptor concentration was determined in a prior saturation experiment where a fixed, arbitrary amount of membranes was incubated with a concentration range of radio-labeled tracer. This allows estimating the total number of specific binding sites per amount of protein (i.e., Bmax), typically between 1 and 5 pmol/mg.
The concentration of the test compound required to result in half maximal inhibition of binding of the radio-labeled tracer (IC50) was estimated from a concentration-versus-dpm graph. The binding affinity (Ki) was calculated from the IC50 by applying the Cheng-Prussoff equation for single binding sites.

T1 sequence (P35346 whole entry): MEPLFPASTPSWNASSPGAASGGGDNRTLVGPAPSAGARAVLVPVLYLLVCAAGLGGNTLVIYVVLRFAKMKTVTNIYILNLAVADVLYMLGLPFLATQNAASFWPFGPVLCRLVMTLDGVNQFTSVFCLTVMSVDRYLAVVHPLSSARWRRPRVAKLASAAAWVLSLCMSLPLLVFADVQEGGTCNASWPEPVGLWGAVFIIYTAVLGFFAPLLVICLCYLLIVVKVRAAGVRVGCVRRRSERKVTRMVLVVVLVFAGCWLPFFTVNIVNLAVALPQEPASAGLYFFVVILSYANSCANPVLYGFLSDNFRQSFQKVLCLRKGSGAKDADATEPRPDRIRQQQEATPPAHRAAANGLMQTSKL

Ki [nM]	SMILES
74	CCOc1cc(CN2CCC(Nc3nc(-c4ccccc4)no3)CC2)ccc1C [Example 1, [1-(3-Ethoxy-4-methyl-benzyl)-piperidin-4-yl]-(3-phenyl-[1,2,4]oxadiazol-5-yl)-amine]
91	CCOc1cc(CN2CCC(Nc3nc(-c4ccccc4)no3)CC2)ccc1Cl [Example 2, [1-(4-Chloro-3-ethoxy-benzyl)-piperidin-4-yl]-(3-phenyl-[1,2,4]oxadiazol-5-yl)-amine]
449	CCOc1cc(CN2CCC(Nc3nc(-c4ccccc4)no3)CC2)cc2c1OC(C)(C)C=C2 [Example 7, [1-(8-Ethoxy-2,2-dimethyl-2H-chromen-6-ylmethyl)-piperidin-4-yl]-(3-phenyl-[1,2,4]oxadiazol-5-yl)-amine]
41	CCOc1cc(CN2CCC(Nc3nc(-c4ccccc4)no3)CC2)cc(OCC)c1N [Example 9, [1-(4-Amino-3,5-diethoxy-benzyl)-piperidin-4-yl]-(3-phenyl-[1,2,4]oxadiazol-5-yl)-amine]
42	CCOc1cc(CN2CCC(Nc3nc4ccccc4n3C)CC2)ccc1Cl [Example 11, [1-(4-Chloro-3-ethoxy-benzyl)-piperidin-4-yl]-(1-methyl-1H-benzoimidazol-2-yl)-amine]
35	CC(C)Oc1cc(CN2CCC(Nc3nc4ccccc4n3C)CC2)cc(OC(C)C)c1 [Example 13, [1-(3,5-Diisopropoxy-benzyl)-piperidin-4-yl]-(1-methyl-1H-benzoimidazol-2-yl)-amine]
48	CCOc1cc(CN2CCC(Nc3nc(-c4cccc(OC)c4)co3)CC2)cc(OCC)c1-c1ccc(F)cc1 [Example 15, [1-(2,6-Diethoxy-4′-fluoro-biphenyl-4-ylmethyl)-piperidin-4-yl]-[4-(3-methoxy-phenyl)-oxazol-2-yl]-amine]
26	CCOc1cc(CN2CCC(Nc3nc(-c4ccc(F)cc4)co3)CC2)cc(OCC)c1F [Example 19, [1-(3,5-Diethoxy-fluoro-benzyl)-piperidin-4yl]-[4-(4-fluoro-phenyl)-oxazol-2-yl]-amine]
27	CCOc1cc(CN2CCC(Nc3nc(-c4ccccc4)co3)CC2)cc(OCC)c1-c1ccc(F)cc1 [Example 24]
8	CCOc1cc(CN2CCC(Nc3nc(-c4ccc(Cl)cc4)co3)CC2)cc(OCC)c1Cl [Example 27, [1-(4-Chloro-3,5-diethoxy-benzyl)-piperidin-4-yl]-[4(4-chloro-phenyl)oxazol-2-yl]-amine]
28	CCOc1cc(CN2CCC(Nc3ncc(-c4ccccc4)o3)CC2)cc(OCC)c1-c1ccc(F)cc1 [Example 33, [1-(2,6-Diethoxy-4′-fluoro-biphenyl-4-ylmethyl)-piperidin-4-yl]-(5-phenyl-oxazol-2-yl)-amine]
12	CCOc1cc(CN2CCC(Nc3ncc(-c4ccccc4)o3)CC2)cc(OCC)c1Cl [Example 37, [1-(4-Chloro-3,5-diethoxy-benzyl)-piperidin-4-yl]-(5-phenyl-oxazol-2-yl)amine]
46	CCOc1cc(CN2CCC(Nc3ncc(-c4ccc(OC)cc4)o3)CC2)cc(OCC)c1-c1ccc(F)cc1 [Example 40, [1-(2,6-Diethoxy-4′-fluoro-bipehenyl-4-ylmethyl)-piperidin-4-yl]-[5-(4-methoxy-phenyl)-oxazol-2-yl]-amine]
12	CCOc1cc(CN2CCC(Nc3ncc(-c4ccccc4)o3)CC2)cc(OCC)c1C [Example 46, [1-(3,5-Diethoxy-4-methyl-benzyl)-piperidin-4-yl]-(5-phenyl-oxazol-2-yl)-amine]
73	CCOc1cc(CN2CCC(Nc3nc(-c4ccc(C(F)(F)F)cc4)co3)CC2)cc(OCC)c1-c1ccc(F)cc1 [Example 49]

SMILES	Ki [nM]
COc1ccc(CN2CCC(Nc3nc(-c4ccccc4)no3)CC2)cc1OCC(C)C [Example 5, [1-(3-Isobutoxy-4-methoxy-benzyl)piperidin-4-yl]-(3-phenyl-[1,2,4]oxadiazol-5-yl)-amine]	116
